Legend:
loblolly cell lines = assay: asa2 (pWVC33) selection on Geneticin, 5MT or AMT, PCR check (Example 32); type: cell-based, Pinus taeda; settings: Geneticin 15 mg/L with casein hydrolysate, 5MT or AMT 30 mg/L with AA4; for PCR confirmed positive (number of lines): of 12, 8, 22 lines PCR tested
Method: Two loblolly cell lines were prepared for transformation using the method of Example 28, and co-cultivated with Agrobacterium tumefaciens transformed with pWVC33 (FIG. 7) as described in Example 28. Following eradication of Agrobacterium, each cell line was equally divided onto 6 plates each of 5 different selection media containing either casein hydrolysate and Geneticin at 15 mg/L, or amino acid mixture AA4 and either 5-methyltryptophan (5MT) at 30 or 50 mg/L or […] (AMT) at 30 or 50 mg/L. The results are show in FIG. 12. Putatively transformed sublines grow on Geneticin-containing plates and on both selection treatments where 30 mg/L of the methylated tryptophan selective analog was incorporated.

[1] = tested on: Eucalyptus grandis x urophylla Clone IPB1; assay: Geneticin selection of NPTII transformants, GUS staining of resistant calli; type: cell-based; settings: about 10 weeks
Method: Before transforming, the explants were pre-cultured for 4 days on a medium having auxin enrichment (IAA at 2 mg/l instead of 0.1 mg/l NAA in standard regeneration medium) and acetosyringone (250 μM). As described in Example 6, the explants were infected with Agrobacterium, co-cultivated on the same medium for 3 days, and then transferred to a regeneration medium supplemented with 400 mg/l timentin for 4 days. Then, the explants were transferred to a selection medium containing geneticin instead of an herbicide selection agent.
The transformants were placed on geneticin selection medium containing geneticin (either 20 or 30 mg/l). Instead of the 3- or 4-week transfer cycles used with an herbicide selection medium, the explants were transferred bi-weekly to fresh geneticin medium. After about 10 weeks of growth on geneticin selection medium, samples of geneticin-resistant calli were collected and stained with x-gluc for GUS expression, as described in Example 7. The following data summarizes GUS expression in geneticin-selected transformants.

[2] = tested on: E. camaldulensis clone C9; assay: Geneticin selection of NPTII transformants, GUS staining of resistant shoot lines; type: cell-based, Eucalyptus camaldulensis; settings: 8 weeks selection
Method: Similar to the methods disclosed in Example 16, E. camaldulensis clone C9 was transformed with GV2260 harboring p35SGUSINT. Following regeneration, the explants were transferred to a selection medium containing geneticin (30, 40, 50, or 60 mg/l geneticin). For geneticin at levels of 30 and 50 mg/l, additional sets of explants were pre-cultured for 1 day. After 8 weeks on selection medium, samples of geneticin-resistant shoot cultures in the early developmental stage were collected and stained with x-gluc for GUS expression.

E. grandis clone IP1 = assay: as above; type: cell-based, Eucalyptus grandis; settings: 8 weeks
Method: (Arabidopsis ActinII.:GUSINT, constitutive::NPTII). As described in Example 4, leaf explants from E. grandis clone IP1 were pre-cultured on a pre-culture medium comprising auxin and an Agrobacterium inducer. The explants were transformed with Agrobacterium and co-cultivated for 3 days on a pre-culture medium with auxin enrichment (IAA at 2 mg/l, instead of 0.1 mg/l NAA in standard regeneration medium) and acetosyringone (250 μM). Then the explants were transferred to Euc Regeneration medium supplemented with 400 mg/l timentin for 4 days. The explants were then transferred to selection medium containing geneticin (30 or 40 mg/l geneticin). After 8 weeks on selection medium, samples of geneticin-resistant shoot cultures in the early developmental stage were collected and stained with x-gluc for GUS expression.

[3] = tested on: Loblolly pine (Pinus taeda) and hybrid pine (P. taeda×P. rigida) embryogenic cell lines; assay: Selection of co-bombarded (als + nptII) pine embryogenic cells on Geneticin or Oust; type: cell-based
Excerpt: This example describes the selection of genetically transformed pine, using a selectable marker encoding ALS on selection media containing a sulfonylurea herbicide, at a level sufficient for selection in model plants. In some experiments, including the one described in the following example, a vector that would express the als gene in the plant tissue was co-bombarded into the cells with a vector that would express the nptII gene in the plant tissue, and the co-bombarded cells were then divided into two groups and placed onto selection medium containing either a sulfonylurea herbicide or Geneticin, so that the frequency with which transformants are selected on Geneticin could be compared with the frequency of selection on herbicide.
Twenty identical replicates from the suspension cells of each of these three pine lines were prepared for gene transfer according to the method described in U.S. Pat. No. 6,518,485. Polyester membrane supports of a defined weight were sterilized by autoclaving and placing in separate sterile Buchner funnels, and approximately 1.5 ml of uniform pine embryogenic suspension at SCV 30 was pipetted onto each support such that the embryogenic tissue was evenly distributed over its surface. […]

[4] = tested on: loblolly pine and loblolly x pitch pine hybrid embryogenic lines; assay: Growth of pine embryogenic lines on Oust with and without casein hydrolysate (FIG. 9); type: cell-based, Pinus taeda; loblolly x pitch pine hybrid; settings: Oust at 0, 10, 20, 40, and 80 nM, DCR2 with and without casein hydrolysate, twelve weeks
Method: Six embryogenic lines, two each from three different families (two genetically diverse loblolly pine families and a family of a loblolly x pitch pine hybrid), were evaluated. Uniform suspension cultures from each of the genetically different tissue culture lines were established as described in Example 26. Three identical replicates from the suspension cells of each of these six lines were plated as described in Example 26 on each of ten formulations of DCR2 medium, namely with and without casein hydrolysate, and containing the herbicide Oust at 0, 10, 20, 40, and 80 nM. The plates were sealed and incubated under the same conditions used for pre-experimental initiation, maintenance and selection steps in Example 26. Every three weeks the culture was transferred to fresh medium of the same formulation as previously provided, following weighing under sterile conditions of the tissue on the polyester support.

E. dunnii clone DUN00001 = assay: Shoot regeneration from Agrobacterium-inoculated internodal explants, zeatin/NAA optimisation; type: cell-based, Eucalyptus dunnii
Method: This example teaches a method to optimize the levels of growth regulators for shoot regeneration from the recalcitrant commercial E. dunnii clone DUN00001 or other recalcitrant clones. Internodal explants are prepared as described in Example 1 and are inocultated with Agrobacterium as described in Example 5. Following co-cultivation, transformed shoot clumps are transferred to a shoot regeneration medium. […] To optimize the auxin and cytokinin concentrations in the shoot regeneration media, several combinations of hormones were evaluated as a function of the production of elongated shoots. […] During the initial screening, the zeatin levels were 10, 1, and 0.1 mg/l and the NAA levels were 0.01, 0.1 and 1 mg/l. […] The following data summarize the attempt to optimize the level of zeatin and NAA.

Compound: CC(c1c[nH]c2ccccc12)[C@H](N)C(=O)O (stereo partly drawn) [AMT30, β-methyltryptophan]
- False positive Frequency (loblolly cell lines): 0.09
- PCR confirmed positive (number of lines) (loblolly cell lines): 20

Compound: CN[C@@H]1[C@@H](O)[C@@H](O[C@@H]2[C@@H](O)[C@H](O[C@H]3O[C@H]([C@@H](C)O)[C@@H](O)[C@H](O)[C@H]3N)[C@@H](N)C[C@H]2N)OC[C@]1(C)O [Geneticin]
- No. GUS^+ Calli ([1]; Geneticin 20 mg/l, regular shaded light, 5 calli stained): 0
- No. GUS^+ Calli ([1]; Geneticin 30 mg/l, dark, 6 calli stained): 4
- No. GUS^+ Calli ([1]; Geneticin 30 mg/l, regular shaded light, 17 calli stained): 13
- % GUS^+ Shoots ([2]; Geneticin 30 mg/l, pre-culture 1 day): 37.9%
- No. GUS^+ Shoot Lines ([2]; Geneticin 30 mg/l, pre-culture 1 day, 29 lines stained): 11
- % GUS^+ Shoots ([2]; Geneticin 30 mg/l, pre-culture 4 days): 12.8%
- No. GUS^+ Shoot Lines ([2]; Geneticin 30 mg/l, pre-culture 4 days, 39 lines stained): 5
- % GUS^+ Shoots ([2]; Geneticin 40 mg/l, pre-culture 4 days): 11.8%
- No. GUS^+ Shoot Lines ([2]; Geneticin 40 mg/l, pre-culture 4 days, 68 lines stained): 8
- % GUS^+ Shoots ([2]; Geneticin 50 mg/l, pre-culture 1 day): 50%
- No. GUS^+ Shoot Lines ([2]; Geneticin 50 mg/l, pre-culture 1 day, 12 lines stained): 6
- % GUS^+ Shoots ([2]; Geneticin 50 mg/l, pre-culture 4 days): 19.4%
- No. GUS^+ Shoot Lines ([2]; Geneticin 50 mg/l, pre-culture 4 days, 31 lines stained): 7
- % GUS^+ Shoots ([2]; Geneticin 60 mg/l, pre-culture 4 days): 50%
- No. GUS^+ Shoot Lines ([2]; Geneticin 60 mg/l, pre-culture 4 days, 8 lines stained): 4
- % GUS^+ Shoots (E. grandis clone IP1; explant source rooted plants, Geneticin 30 mg/l): 0%
- No. GUS^+ Shoot Lines (E. grandis clone IP1; explant source rooted plants, Geneticin 30 mg/l, 1 line stained): 0
- % GUS^+ Shoots (E. grandis clone IP1; explant source shoot cluster, Geneticin 30 mg/l): 50%
- No. GUS^+ Shoot Lines (E. grandis clone IP1; explant source shoot cluster, Geneticin 30 mg/l, 16 lines stained): 8
- % GUS^+ Shoots (E. grandis clone IP1; explant source shoot cluster, Geneticin 40 mg/l): 57%
- No. GUS^+ Shoot Lines (E. grandis clone IP1; explant source shoot cluster, Geneticin 40 mg/l, 7 lines stained): 4
- putative transgenic sublines in which stable transformation is verified ([3]; selection on Geneticin 15 mg/L, 12 sublines tested): 100%
- False positive Frequency (loblolly cell lines): 0.08
- PCR confirmed positive (number of lines) (loblolly cell lines): 11

Compound: COC(=O)c1ccccc1S(=O)(=O)NC(=O)Nc1nc(C)cc(C)n1 [Oust]
- success as selective agent (stopping cell growth), FIG. 9 [4]: successful as a selective agent at multiple concentrations only in the absence of casein hydrolysate
- putative transgenic sublines that were false positives ([3]; selection on 50 nM Oust, medium with casein hydrolysate): Eighty

Compound: C/C(=C\CNc1ncnc2[nH]cnc12)CO [Zeatin, zeatin]
- shoot induction, comparison of levels in two experiments (E. dunnii clone DUN00001; Table 5 experiments): zeatin at 5 mg/l is better than 10 mg/l
- shoot regeneration, initial screening of levels (E. dunnii clone DUN00001; zeatin 10, 1, and 0.1 mg/l with NAA 0.01, 0.1 and 1 mg/l): better results at 10 mg/l than at 1 mg/l or 0.1 mg/l

Source: patent publication US7960614B2, “Plant transformation and selection” (Arborgen, LLC, priority 2003, dated 2011)
